PMC12608155, “Discovery of Potential Antileishmanial Compounds Through Phenotypic Screening of an Alkaloid Library” (Molecules, 2025)
Where two headings read alike, the source gives them in different places.

Tests used:
[1] = tested on: L. donovani IRFP axenic amastigotes; assay: Primary single-concentration screening on axenic amastigotes, growth inhibition at 72 h; type: cell-based, Leishmania donovani; conditions: axenic amastigotes; for inhibition at 1 µM / inhibition at 10 µM: Leishmania donovani; for inhibition at 1 µM / Growth Inhibition (%) at 72h, 1 µM_Exp1 / Growth Inhibition (%) at 72h, 1 µM_Exp2: 1 µM; for inhibition at 10 µM / Growth Inhibition (%) at 72h, 10 µM_Exp1 / Growth Inhibition (%) at 72h, 10 µM_Exp2: 10 µM
[2] = Cytotoxicity in HepG2 cells (alamarBlue, 72 h); conditions: human
Description: (§1) To this end, we calculated SIs from 16 preselected results from the ex vivo system. With this aim, dose–response curves were performed in duplicate across at least three independent experiments using RAW 264.7 mouse macrophages (as a model of host cells harboring amastigotes) and HepG2 (as a model for assessing systemic toxicity).
(§2) To evaluate the safety of the selected compounds, two cell lines were employed: RAW 264.7 (a mouse macrophage-derived cell line) and HepG2 (a human hepatoma cell line). Furthermore, to determine the intestinal tolerance relevant to potential oral administration, mouse intestinal organoids were prepared.
(§3) RAW 264.7 and HepG2 were routinely cultured under standard conditions. RAW 264.7 cells were maintained in RPMI medium (Gibco) supplemented with, 25 mM HEPES, 24 mM NaHCO3, 2 mM L-glutamine, mixture of antibiotics and 10% FBS. HepG2 cells were cultured in DMEM/F-12 (Gibco) and supplemented 10% of FBS. For cytotoxicity assays, 10,000 cells per well were seeded into 96-well plates and incubated overnight at 37 °C with 5% of CO2. Subsequently, 2-fold serial dilutions of the compounds were added and incubated for 72 h. Cell viability using the alamarBlue™ assay according to the manufacturer’s instructions, and fluorescence was measured with a Varioskan™ LUX microplate reader (ThermoFisher Scientific, Waltham, MA, USA). Non-linear regression analyses were performed using SigmaPlot^TM software (version 10.0) to calculate CC50. Data were obtained from at least three independent experiments performed in duplicate.

[3] = Cytotoxicity in RAW 264.7 cells (alamarBlue, 72 h); conditions: mouse
Description: as §1, §2, §3

[4] = tested on: L. donovani IRFP axenic amastigotes; assay: Dose-response assay on axenic amastigotes; type: cell-based, Leishmania donovani; conditions: Leishmania donovani
Description: The objective of the present study was to identify new antileishmanial drug candidates by screening a commercial library of plant-derived alkaloids using a platform based on axenic amastigotes of L. donovani IRFP—the causative agent of VL—genetically modified to emit infrared fluorescence during their viable stage (hereafter referred to as L. donovani IRFP). To this end, single-dose assays at 10 μM and 1 μM, as well as dose–response assays, were performed. Compounds showing significant activity in the initial screening were subsequently clustered according to chemical structure using the DataWarrior tool, and representative compounds were further evaluated in dose response assays against axenic amastigotes.
Female Balb/c mice aged from 6 to 8 weeks were intraperitoneally inoculated with 1.5 × 10^9 infective L. donovani IRFP metacyclic promastigotes. Between 8 and 12 weeks after infection, mice were humanely euthanised and bone marrow was collected from the femurs and tibias of both hind limbs. The bones were cut at both ends, and prewarmed PBS was flushed through the medullary cavity using a syringe fitted with a 27G needle, to extract the bone marrow cells. The resulting cell suspension was filtered through a 100 µm cell strainer and centrifuged at 2500 rpm for 10 min at room temperature. To obtain free amastigotes, the pelleted cells were resuspended within a 75 mL ventilated flask in amastigote culture medium (15 mM KCl; 136 mM KH2PO4; 10 mM K2HPO4.3H2O; 0.5 mM MgSO4.7 H2O; 24 mM NaHCO3; 22 mM glucose; 1 mM glutamine, 1x RPMI 1640 vitamin mix (Sigma-Aldrich, Merck, Darmstadt, Germany), 10 mM folic acid, […], 1x RPMI amino acid mix (Sigma-Aldrich, Merck, Darmstadt, Germany), […], antibiotic mixture, 25 mM MES, 10% FBS (Gibco, ThermoFisher Scientific, Waltham, MA, USA) and incubated at 37 °C in a humidified atmosphere containing 5% CO2 [46].
The efficacy of the selected compounds was assessed by measuring near-infrared fluorescence (700 nm) using an Odyssey Infrared Imaging System (Li-Cor, Lincoln, NE, USA) following the previously described protocols.

[5] = tested on: L. donovani IRFP intramacrophagic amastigotes; assay: Dose-response assay on ex vivo infected splenic explants (intramacrophagic amastigotes); type: cell-based, Leishmania donovani; conditions: Leishmania donovani, Splenocyte, read-out: EC50 Intramacrophagic Amastigotes
[6] = experiment 1, 72 h, read-out: Growth Inhibition (%) at 72h, 1 µM_Exp1
[7] = experiment 2, 72 h, read-out: Growth Inhibition (%) at 72h, 1 µM_Exp2
[8] = experiment 1, 72 h, read-out: Growth Inhibition (%) at 72h, 10 µM_Exp1
[9] = experiment 2, 72 h, read-out: Growth Inhibition (%) at 72h, 10 µM_Exp2
[10] = primary cultures of infected mouse splenocytes

Row | Molecule | inhibition at 1 µM [1, 6] [%] | inhibition at 1 µM [1, 7] [%] | inhibition at 10 µM [1, 8] [%] | inhibition at 10 µM [1, 9] [%] | IC50 [4] [µM] | other results
1 | COc1cc2c3c(cc4ccccc4c3c1OC)N(C)CC2 [Dehydronuciferine] | 86.7 | 77.8 | 100 | 100 | 1.23 ± 0.03 | CC50 at 72 h ([2]; HepG2 hepatoma cells): 25.5 ± 5.43 µM; CC50 at 72 h ([3]; RAW 264.7 macrophage cells): 18.6 ± 1.11 µM; EC50 [5, 10]: > 50 µM
2 | COc1ccc2c(c1OC)CN(C)c1c-2ccc2cc3c(cc12)OCO3 [Dihydrochelerythrine] | 100 | 97.9 | 100 | 100 | 0.06 ± 0.005 | CC50 at 72 h ([2]; HepG2 hepatoma cells): > 50 µM; CC50 at 72 h ([3]; RAW 264.7 macrophage cells): > 50 µM; EC50 [5, 10]: 10.5 ± 0.75 µM
3 | CN1Cc2c(ccc3c2OCO3)-c2ccc3cc4c(cc3c21)OCO4 [Dihydrosanguinarine] | 99.3 | 97.6 | 99.8 | 99.7 | 0.19 ± 0.01 | CC50 at 72 h [2]: > 40 µM; CC50 at 72 h [3]: 46.5 ± 10.1 µM; EC50 ([5]; in Mus musculus): 8.55 ± 1.33 µM
4 | CN1C(=O)/C(=C2/C(=O)Nc3ccccc32)c2ccccc21 [Meisoindigo] | 100 | 100 | 100 | 100 | 1.53 ± 0.21 | CC50 at 72 h ([2]; HepG2 hepatoma cells): 20.4 ± 1.4 µM; CC50 at 72 h ([3]; RAW 264.7 macrophage cells): 14.9 ± 0.9 µM; EC50 [5, 10]: 9.3 ± 0.52 µM
5 | CC[C@@H]1[C@H]2CCCCN3[C@H]2[C@@H](C[C@H]3[C@@H]2C[C@H](C)C(=O)O2)[C@H]2[C@@H]1OC(=O)[C@H]2C [Neotuberostemonine] | 38 | 69.7 | 101 | 101 | 1.27 ± 0.06 | CC50 at 72 h [2]: > 50 µM; CC50 at 72 h [3]: 39.1 ± 2.2 µM; EC50 [5, 10]: > 25 µM
6 | CC(C)(O)[C@H]1O[C@H]2CC[C@@]3(C)[C@@](O)(CC[C@H]4Cc5c([nH]c6ccccc56)[C@@]43C)C2=CC1=O [Paxilline] | 6.12 | 19.6 | 98.6 | 99.1 | – | –
7 | O=C(O)c1cccc2nc3ccccc3nc12 [Phenazine-1-carboxylic acid] | -12.2 | -87 | 90.8 | 87.8 | – | –
8 | O=C(/C=C/C=C/c1ccc2c(c1)OCO2)N1CCCCC1 [Piperine] | 38.3 | 17.5 | -7.31 | 75.2 | – | –
9 | COc1cc(/C=C/C(=O)N2CCC=CC2=O)cc(OC)c1OC [Piperlongumine] | – | – | – | – | – | Growth Inhibition (%) at 72h, 1 µM_Exp1 ([1]; experiment 1, 72 h): 99.95%; Growth Inhibition (%) at 72h, 1 µM_Exp2 ([1]; experiment 2, 72 h): 98.63%; Growth Inhibition (%) at 72h, 10 µM_Exp1 ([1]; experiment 1, 72 h): 100.21%; Growth Inhibition (%) at 72h, 10 µM_Exp2 ([1]; experiment 2, 72 h): 100.05%
10 | Cc1ncc(CO)c(CO)c1O.Cl [Pyridoxine (hydrochloride)] | – | – | – | – | – | Growth Inhibition (%) at 72h, 1 µM_Exp1 ([1]; experiment 1, 72 h): 6.77%; Growth Inhibition (%) at 72h, 1 µM_Exp2 ([1]; experiment 2, 72 h): -86.02%; Growth Inhibition (%) at 72h, 10 µM_Exp1 ([1]; experiment 1, 72 h): 79.17%; Growth Inhibition (%) at 72h, 10 µM_Exp2 ([1]; experiment 2, 72 h): 65.78%
11 | COc1c2ccoc2nc2c(O)cccc12 [Robustine] | 48.3 | 1.86 | 90.6 | 33.3 | – | –
12 | CC[C@@]1(O)C(=O)OCc2c1cc1n(c2=O)Cc2cc3c([N+](=O)[O-])cccc3nc2-1 [Rubitecan] | 69.8 | 36.9 | 94.4 | 89.4 | – | –
13 | C[n+]1cc2c3c(ccc2c2ccc4cc5c(cc4c21)OCO5)OCO3 [Sanguinarine] | 99.7 | 99.5 | 100 | 101 | 0.19 ± 0.01 | CC50 at 72 h ([2]; HepG2 hepatoma cells): 2.08 ± 0.06 µM; CC50 at 72 h ([3]; RAW 264.7 macrophage cells): 1.84 ± 0.06 µM; EC50 ([5]; in Mus musculus): 0.85 ± 0.03 µM
14 | C[C@@H]1CC[C@@]2(NC1)O[C@H]1C[C@H]3[C@@H]4CC=C5C[C@@H](O[C@@H]6O[C@H](CO)[C@@H](O[C@@H]7O[C@@H](C)[C@H](O)[C@@H](O)[C@H]7O)[C@H](O)[C@H]6O[C@@H]6O[C@@H](C)[C@H](O)[C@@H](O)[C@H]6O)CC[C@]5(C)[C@H]4CC[C@]3(C)[C@H]1[C@@H]2C [Solamargine] | 62.8 | 11.2 | 93.6 | 94.3 | – | –
15 | CC[C@]12C=CCN3CC[C@]4(C(=C(C(=O)OC)C1)Nc1ccccc14)[C@@H]32 [Tabersonine] | -26.2 | -7.79 | 98 | 61.5 | – | –
16 | C[C@H]1CC[C@]2(NC1)O[C@H]1C[C@H]3[C@@H]4CC[C@H]5C[C@@H](O)CC[C@]5(C)[C@H]4CC[C@]3(C)[C@H]1[C@@H]2C [Tomatidine] | 11.2 | 18.6 | 66.9 | 75.1 | – | –
17 | O=C1c2ccccc2-n2c1nc1ccccc1c2=O [Tryptanthrin] | 13.1 | 23.4 | 84.1 | 75 | – | –
18 | CC[C@]1(O)C[C@@H]2CN(CCc3c([nH]c4ccccc34)[C@@](C(=O)OC)(c3cc4c(cc3OC)N(C)[C@H]3[C@@](O)(C(=O)OC)[C@H](OC(C)=O)[C@]5(CC)C=CCN6CC[C@]43[C@@H]65)C2)C1.O=S(=O)(O)O [Vinblastine (sulfate)] | – | – | – | – | – | Growth Inhibition (%) at 72h, 1 µM_Exp1 ([1]; experiment 1, 72 h): -20.42%; Growth Inhibition (%) at 72h, 1 µM_Exp2 ([1]; experiment 2, 72 h): -25.23%; Growth Inhibition (%) at 72h, 10 µM_Exp1 ([1]; experiment 1, 72 h): 99.34%; Growth Inhibition (%) at 72h, 10 µM_Exp2 ([1]; experiment 2, 72 h): 78.77%
19 | Evocarpine | – | – | – | – | – | Growth Inhibition (%) at 72h, 1 µM_Exp1 ([1]; experiment 1, 72 h): -18.62%; Growth Inhibition (%) at 72h, 1 µM_Exp2 ([1]; experiment 2, 72 h): -35.10%; Growth Inhibition (%) at 72h, 10 µM_Exp1 ([1]; experiment 1, 72 h): 100.35%; Growth Inhibition (%) at 72h, 10 µM_Exp2 ([1]; experiment 2, 72 h): 98.71%
20 | Evodiamine | – | – | – | – | – | Growth Inhibition (%) at 72h, 1 µM_Exp1 ([1]; experiment 1, 72 h): -42.64%; Growth Inhibition (%) at 72h, 1 µM_Exp2 ([1]; experiment 2, 72 h): 25.77%; Growth Inhibition (%) at 72h, 10 µM_Exp1 ([1]; experiment 1, 72 h): 94.67%; Growth Inhibition (%) at 72h, 10 µM_Exp2 ([1]; experiment 2, 72 h): 96.80%
